Experimental data as given in PMC9928189 (ACS catalysis, 2022).
Residue numbers refer to the chain shown, from its start.

Assays:
Test in all cases: X-ray crystal structure
Format in all cases: binding
MroM-A1 = target: T1, MroM-A1 (Mycena rosella, UniProt A0A9X9ZA27); conditions: 1.79 Å; core peptide A1 fused and N-methylated
T1 sequence (A0A9X9ZA27 4-400): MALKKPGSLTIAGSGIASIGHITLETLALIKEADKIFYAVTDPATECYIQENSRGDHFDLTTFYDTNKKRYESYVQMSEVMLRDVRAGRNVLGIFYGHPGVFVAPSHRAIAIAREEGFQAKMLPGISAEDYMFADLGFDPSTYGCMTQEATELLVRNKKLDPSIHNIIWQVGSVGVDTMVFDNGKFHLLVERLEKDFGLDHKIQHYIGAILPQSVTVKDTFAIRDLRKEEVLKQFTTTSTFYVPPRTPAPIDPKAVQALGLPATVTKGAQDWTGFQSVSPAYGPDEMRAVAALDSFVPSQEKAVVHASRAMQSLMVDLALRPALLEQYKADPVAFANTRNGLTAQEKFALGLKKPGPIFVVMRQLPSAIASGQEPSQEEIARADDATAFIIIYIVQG

MroM-A2 = target: T2, MroM-A2 (Mycena rosella, UniProt A0A9X9ZA29); conditions: 1.86 Å; core peptide A2 fused and N-methylated
T2 sequence (A0A9X9ZA29 4-400): T1 sequence (A0A9X9ZA27 4-400) with F389L, I390A, I391L, I392V, Y393V, I394V, V395I, Q396V, G397Q

MroM-CspL = target: T3, MroM-CspL (Mycena rosella, UniProt A0A9X9ZA30); conditions: 1.93 Å; cyclosporin-like core fused and N-methylated
T3 sequence (A0A9X9ZA30 4-402): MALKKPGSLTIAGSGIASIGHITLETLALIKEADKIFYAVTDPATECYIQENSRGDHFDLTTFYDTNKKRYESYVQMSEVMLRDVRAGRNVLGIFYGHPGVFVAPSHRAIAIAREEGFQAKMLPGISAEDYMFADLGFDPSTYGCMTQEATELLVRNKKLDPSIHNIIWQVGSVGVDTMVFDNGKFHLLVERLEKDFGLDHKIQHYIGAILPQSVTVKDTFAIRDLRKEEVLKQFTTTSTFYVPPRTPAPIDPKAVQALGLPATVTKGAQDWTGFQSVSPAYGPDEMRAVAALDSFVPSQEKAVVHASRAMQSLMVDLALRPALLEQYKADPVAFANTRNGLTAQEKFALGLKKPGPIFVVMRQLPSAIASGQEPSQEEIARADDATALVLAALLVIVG

Q: How did the X-ray crystal structure (MroM-A1) turn out when `Nc1ncnc2c1ncn2[C@@H]1O[C@H](CSCC[C@H](N)C(=O)O)[C@@H](O)[C@H]1O` [S-adenosylhomocysteine] was run?
A: Its X-ray crystal structure is “Each structure was determined in complex with product S-adenosylhomocysteine (SAH)”.

Q: What about the X-ray crystal structure (MroM-A2) of the same molecule?
A: Its X-ray crystal structure is “Each structure was determined in complex with product S-adenosylhomocysteine (SAH)”.

Q: And the X-ray crystal structure (MroM-CspL)?
A: Its X-ray crystal structure is “Each structure was determined in complex with product S-adenosylhomocysteine (SAH)”.
